Laboratory results from doi:10.1101/2021.06.18.448987v1 (biorxiv, 2021).
Where two headings read alike, the source gives them in different places. Blank lines part the entries; values can stand above or below the molecule they belong to.

Experiments:
AnaGlgC [1] = target: T1, AnaGlgC (Nostoc sp. PCC 7120 = FACHB-418, UniProt P30521); test: Malachite Green Pi release with inorganic pyrophosphatase, ADP-Glc synthesis; assay type: biochemical
T1 sequence (P30521 1-429): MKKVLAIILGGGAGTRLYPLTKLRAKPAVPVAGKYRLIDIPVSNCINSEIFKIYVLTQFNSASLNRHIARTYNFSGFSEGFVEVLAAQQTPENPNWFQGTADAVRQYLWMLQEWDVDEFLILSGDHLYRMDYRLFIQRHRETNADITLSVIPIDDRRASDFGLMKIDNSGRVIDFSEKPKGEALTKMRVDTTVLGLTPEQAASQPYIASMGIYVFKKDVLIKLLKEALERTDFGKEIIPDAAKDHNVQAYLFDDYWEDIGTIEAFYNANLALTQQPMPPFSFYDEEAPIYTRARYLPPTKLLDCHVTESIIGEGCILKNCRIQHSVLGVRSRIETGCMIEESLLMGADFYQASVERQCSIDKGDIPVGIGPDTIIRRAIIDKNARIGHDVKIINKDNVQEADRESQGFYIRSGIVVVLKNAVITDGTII

AnaGlgC [2] = target: T1, AnaGlgC; test: biochemical
flMelGlgC [3] = test: activity assay, ADP-Glc synthesis; assay type: biochemical, Candidatus Melainabacteria bacterium GWF2_37_15; settings: read-out: I0.5; inhibitor; 10 mM MgCl2; MOPS pH 8.0; 37 °C
inMelGlgC [4] = test: activity assay, ADP-Glc synthesis; assay type: biochemical, Candidatus Melainabacteria bacterium MEL.A1; settings: read-out: I0.5; inhibitor; 10 mM MgCl2; MOPS pH 8.0; 37 °C
inMelGlgC [5] = settings: read-out: S0.5, no effector, 10 mM MgCl2, MOPS pH 8.0, 37 °C
flMelGlgC [6] = settings: read-out: S0.5, no effector, 10 mM MgCl2, MOPS pH 8.0, 37 °C
inMelGlgC [7] = test: Malachite Green Pi release with inorganic pyrophosphatase, ADP-Glc synthesis; assay type: biochemical, Candidatus Melainabacteria bacterium MEL.A1; settings: read-out: A0.5; allosteric activator; 10 mM MgCl2; MOPS pH 8.0; 37 °C
flMelGlgC [8] = test: as above; assay type: biochemical, Candidatus Melainabacteria bacterium GWF2_37_15; settings: read-out: A0.5; allosteric activator; 10 mM MgCl2; MOPS pH 8.0; 37 °C
AnaGlgC [9] = target: T1, AnaGlgC; test: coupled spectrophotometric assay; assay type: biochemical
purified protein [10] = substrate: Nc1ncnc2c1ncn2[C@@H]1O[C@H](COP(=O)(O)OP(=O)(O)OP(=O)(O)O)[C@@H](O)[C@H]1O; test: purified protein; settings: no effector, saturating Glc-1P, 10 mM MgCl2, MOPS pH 8.0, 37 °C
purified protein [11] = substrate: O=P(O)(O)O[C@H]1O[C@H](CO)[C@@H](O)[C@H](O)[C@H]1O; test: purified protein; settings: no effector, saturating ATP, 10 mM MgCl2, MOPS pH 8.0, 37 °C
[12] = read-out: A0.5, allosteric activator, 10 mM MgCl2, MOPS pH 8.0, 37 °C

Molecule: O=C(O)[C@H](O)COP(=O)(O)O [3-PGA]
EC50 (AnaGlgC [1]): 200 µM
EC50 (AnaGlgC [2]): 190 ± 90 µM

Molecule: Nc1ncnc2c1ncn2[C@@H]1O[C@H](COP(=O)(O)OP(=O)(O)O)[C@@H](O)[C@H]1O [ADP]
IC50 (flMelGlgC [3]): 1440 ± 80 µM
IC50 (inMelGlgC [4]): 2300 ± 900 µM

Molecule: Nc1ncnc2c1ncn2[C@@H]1O[C@H](COP(=O)(O)OP(=O)(O)OP(=O)(O)O)[C@@H](O)[C@H]1O [ATP]
Km (inMelGlgC [5]; saturating Glc-1P): 250 ± 10 µM
Km (flMelGlgC [6]; saturating Glc-1P): 340 ± 50 µM

B1: AnaGlgC (Nostoc sp. PCC 7120 = FACHB-418) (protein)
chain: T1 sequence (P30521 1-429)
K0.5 (purified protein [10]): 0.40 ± 0.04 mM
K0.5 (purified protein [11]): 0.08 ± 0.02 mM

Next, values leading:

EC50 (inMelGlgC [7]): 440 ± 50 µM
EC50 (AnaGlgC [1]; [12]): 900 ± 100 µM
EC50 (flMelGlgC [8]): 1700 ± 100 µM
Molecule: O=P(O)(O)OC[C@H]1OC(O)(CO)[C@@H](O)[C@@H]1O (stereo partly shown) [Fru-6P]

Km (inMelGlgC [5]; saturating ATP): 320 ± 30 µM
Km (flMelGlgC [6]; saturating ATP): 2100 ± 200 µM
Molecule: O=P(O)(O)O[C@H]1O[C@H](CO)[C@@H](O)[C@H](O)[C@H]1O [Glc-1P]

EC50 (inMelGlgC [7]): ~300 µM
EC50 (AnaGlgC [1]; [12]): 1450 ± 160 µM
EC50 (flMelGlgC [8]): ~300 µM
Molecule: O=P(O)(O)OC[C@H]1OC(O)[C@H](O)[C@@H](O)[C@@H]1O (stereo partly shown) [Glc-6P]

EC50 (inMelGlgC [7]): 520 ± 20 µM
EC50 (flMelGlgC [8]): 450 ± 40 µM
Molecule: O=P(O)(O)OC[C@H]1OC(O)[C@@H](O)[C@@H](O)[C@@H]1O (stereo partly shown) [Man-6P]

IC50 (AnaGlgC [9]): 90 µM
Molecule: O=P(O)(O)O [Pi]
